This is an account of results in ChEMBL document CHEMBL6087397, “H2S-releasing oridonin derivatives with improved antitumor activity by inhibiting the PI3K/AKT pathway” (Bioorg Med Chem, 2024).

Holding throughout (type): functional, cell-based
The test system of test [1] is MCF7. In words: Antiproliferative activity against human MCF7 cells assessed as inhibition of cell proliferation incubated for 48 hrs by CCK-8 assay. The note with it: MCF7, 48 h. Background: Formazan colour is commonly taken as a measure of viable cells.
The test system of test [2] is A549. Nature of the test: Antiproliferative activity against human A549 cells assessed as inhibition of cell proliferation incubated for 48 hrs by CCK-8 assay. As to conditions: A549, 48 h.
Test [3] has as its system HepG2. In words: Antiproliferative activity against human HepG2 cells assessed as inhibition of cell proliferation incubated for 48 hrs by CCK-8 assay. As to conditions: HepG2, 48 h.
Test [4] relates to PANC-1. In words: Antiproliferative activity against human PANC-1 cells assessed as inhibition of cell proliferation incubated for 48 hrs by CCK-8 assay. The note with it: PANC-1, 48 h.
Test [5] deals with MIA PaCa-2. In words: Antiproliferative activity against human MIA PaCa-2 cells assessed as inhibition of cell proliferation incubated for 48 hrs by CCK-8 assay. The note with it: MIA PaCa-2, 48 h.

On to `C=C1C(=O)[C@]23[C@H](OC(=O)CCC(=O)OCC#CCOC(=O)c4ccc(N=C=S)cc4)[C@H]1CC[C@H]2[C@@]12CO[C@]3(O)[C@@H](O)[C@@H]1C(C)(C)CC[C@@H]2OC(C)=O`, for which the IC50 was 4.49 µM in test [1]; > 40 µM in test [2]; 7.65 µM in test [3]; > 40 µM in test [4]; 28.7 µM in test [5].
On to `C=C1C(=O)[C@]23[C@H](O)[C@H]1CC[C@H]2[C@@]12CO[C@]3(O)[C@@H](O)[C@@H]1C(C)(C)CC[C@@H]2O` [ORIDONIN], for which the IC50 in test [1] came to 16 µM; in test [2], 14.9 µM; in test [3], 28.1 µM; in test [4] it was 19.1 µM; in test [5] it was 5.97 µM.
With `O=C(O)c1ccc(N=C=S)cc1`, the IC50 in test [1], in test [2], in test [3], in test [4] and in test [5] was > 40 µM in each case.
In the case of `C=C1C(=O)[C@]23[C@H](OC(=O)CCCC(=O)OCCCOC(=O)c4ccc(N=C=S)cc4)[C@H]1CC[C@H]2[C@@]12CO[C@]3(O)[C@@H](O)[C@@H]1C(C)(C)CC[C@@H]2OC(C)=O`, the IC50 in test [1] is 6.98 µM; in test [2], > 40 µM; in test [3] it was > 40 µM; in test [4], 24.8 µM; in test [5] it was 14.9 µM.
For `C=C1C(=O)[C@]23[C@H](OC(=O)CCCC(=O)OCC#CCOC(=O)c4ccc(N=C=S)cc4)[C@H]1CC[C@H]2[C@@]12CO[C@]3(O)[C@@H](O)[C@@H]1C(C)(C)CCC2=O`, the IC50 in test [1] is 14 µM; in test [2] it was > 40 µM.
On to `C=C1C(=O)[C@]23[C@H](OC(=O)CCCC(=O)OCc4ccc(-c5nc(=O)ss5)cc4)[C@H]1CC[C@H]2[C@@]12CO[C@]3(O)[C@@H](O)[C@@H]1C(C)(C)CC[C@@H]2OC(C)=O`, for which the IC50 worked out at 13 µM in test [1] and 14.3 µM in test [2].
The matching figures for `C=C1C(=O)[C@]23[C@H](OC(=O)CCCC(=O)OCC#CCOC(=O)c4ccc(N=C=S)cc4)[C@H]1CC[C@H]2[C@@]12CO[C@]3(O)[C@@H](O)[C@@H]1C(C)(C)CC[C@@H]2O`: > 40 µM and > 40 µM.
As for `C=C1C(=O)[C@]23[C@H](OC(=O)CCCC(=O)OCCCCOC(=O)c4ccc(N=C=S)cc4)[C@H]1CC[C@H]2[C@@]12CO[C@]3(O)[C@@H](O)[C@@H]1C(C)(C)CCC2=O`, the IC50 in test [1] came to 6.93 µM; in test [2], 24.4 µM; in test [3], 8.69 µM; in test [4], 18.8 µM; in test [5], 11 µM.
In the case of `C=C1C(=O)[C@]23[C@H](OC(=O)CCC(=O)OCCCOC(=O)c4ccc(N=C=S)cc4)[C@H]1CC[C@H]2[C@@]12CO[C@]3(O)[C@@H](O)[C@@H]1C(C)(C)CCC2=O`, the results for the half-maximal inhibitory concentration (IC50) in test [1] and in test [2] were 10.4 µM and 16.3 µM, respectively.
Take `C=C1C(=O)[C@]23[C@H](O)[C@H]1CC[C@H]2[C@@]12CO[C@@]3(O)[C@@H](O)[C@@H]1C(C)(C)CC[C@@H]2OC(C)=O`: the IC50 in test [1] is 8.76 µM; in test [2] it was 5.47 µM.
The like results for `C=C1C(=O)[C@]23[C@H](O)[C@H]1CC[C@H]2[C@@]12CO[C@]3(O)[C@@H](O)[C@@H]1C(C)(C)CCC2=O` were, in that order, 13.5 µM and 6.84 µM.
In the case of `C=C1C(=O)[C@]23[C@H](OC(=O)CCCC(=O)OCCCCOC(=O)c4ccc(N=C=S)cc4)[C@H]1CC[C@H]2[C@@]12CO[C@]3(O)[C@@H](O)[C@@H]1C(C)(C)CC[C@@H]2O`, the IC50 in test [1] and in test [2] was > 40 µM each time.
For the molecule `C=C1C(=O)[C@]23[C@H](OC(=O)CCC(=O)OCCOC(=O)c4ccc(N=C=S)cc4)[C@H]1CC[C@H]2[C@@]12CO[C@]3(O)[C@@H](O)[C@@H]1C(C)(C)CC[C@@H]2O`, the IC50 in test [1] and in test [2] was > 40 µM throughout.
For the molecule `C=C1C(=O)[C@]23[C@H](OC(=O)CCC(=O)OCC#CCOC(=O)c4ccc(N=C=S)cc4)[C@H]1CC[C@H]2[C@@]12CO[C@]3(O)[C@@H](O)[C@@H]1C(C)(C)CC[C@@H]2O`, the IC50 in test [1] and in test [2] was > 40 µM each time.
Turning to `C=C1C(=O)[C@]23[C@H](OC(=O)CCC(=O)OCCCCOC(=O)c4ccc(N=C=S)cc4)[C@H]1CC[C@H]2[C@@]12CO[C@]3(O)[C@@H](O)[C@@H]1C(C)(C)CC[C@@H]2O`, the half-maximal inhibitory concentration (IC50) in test [1] and in test [2] was > 40 µM throughout.
In the case of `C=C1C(=O)[C@]23[C@H](OC(=O)c4ccc(N=C=S)cc4)[C@H]1CC[C@H]2[C@@]12CO[C@]3(O)[C@@H](O)[C@@H]1C(C)(C)CCC2=O`, the IC50 in test [1] stood at 7.08 µM; in test [2] it was 21.2 µM.
On to `C=C1C(=O)[C@]23[C@H](OC(=O)CCCC(=O)OCc4ccc(-c5nc(=O)ss5)cc4)[C@H]1CC[C@H]2[C@@]12CO[C@]3(O)[C@@H](O)[C@@H]1C(C)(C)CCC2=O`, for which the results for the IC50 in test [1] and in test [2] were > 40 µM and 28.5 µM, respectively.
The matching figures for `C=C1C(=O)[C@]23[C@H](OC(=O)c4ccc(N=C=S)cc4)[C@H]1CC[C@H]2[C@@]12CO[C@]3(O)[C@@H](O)[C@@H]1C(C)(C)CC[C@@H]2OC(C)=O`: 13 µM and 28.1 µM.
Consider `C=C1C(=O)[C@]23[C@H](OC(=O)CCCC(=O)OCC#CCOC(=O)c4ccc(N=C=S)cc4)[C@H]1CC[C@H]2[C@@]12CO[C@]3(O)[C@@H](O)[C@@H]1C(C)(C)CC[C@@H]2OC(C)=O`, for which the IC50 in test [1] is 12.8 µM; in test [2], > 40 µM.
On to `C=C1C(=O)[C@]23[C@H](OC(=O)CCCC(=O)OCCOC(=O)c4ccc(N=C=S)cc4)[C@H]1CC[C@H]2[C@@]12CO[C@]3(O)[C@@H](O)[C@@H]1C(C)(C)CC[C@@H]2OC(C)=O`, for which the IC50 was 8.7 µM in test [1] and > 40 µM in test [2].
With `C=C1C(=O)[C@]23[C@H](OC(=O)CCCC(=O)OCCCCOC(=O)c4ccc(N=C=S)cc4)[C@H]1CC[C@H]2[C@@]12CO[C@]3(O)[C@@H](O)[C@@H]1C(C)(C)CC[C@@H]2OC(C)=O`, the IC50 in test [1] is 9.99 µM; in test [2] it was > 40 µM.
`C=C1C(=O)[C@]23[C@H](OC(=O)CCC(=O)OCCCCOC(=O)c4ccc(N=C=S)cc4)[C@H]1CC[C@H]2[C@@]12CO[C@]3(O)[C@@H](O)[C@@H]1C(C)(C)CC[C@@H]2OC(C)=O`: the IC50 is 11.6 µM in test [1] and > 40 µM in test [2].
For the molecule `C=C1C(=O)[C@]23[C@H](OC(=O)CCCC(=O)OCCOC(=O)c4ccc(N=C=S)cc4)[C@H]1CC[C@H]2[C@@]12CO[C@]3(O)[C@@H](O)[C@@H]1C(C)(C)CCC2=O`, the results for the IC50 in test [1] and in test [2] were 19.2 µM and 32.4 µM, respectively.
As for `COc1cccc2c1C(=O)c1c(O)c3c(c(O)c1C2=O)C[C@@](O)(C(=O)CO)C[C@@H]3O[C@H]1C[C@H](N)[C@H](O)[C@H](C)O1` [DOXORUBICIN], the concentration for half-maximal inhibition (IC50) came out at 1.19 µM in test [4] and 1.16 µM in test [5].

The IC50 is the midpoint of a concentration-inhibition curve.
